Laboratory results as given in PMC6142817, “New Urea Derivatives Are Effective Anti-senescence Compounds Acting Most Likely via a Cytokinin-Independent Mechanism” (Frontiers in Plant Science, 2018).
Read-outs that look alike come from different tables or passages of the source. Blank lines part the entries; values can stand above or below the molecule they belong to.

Legend:
[1] = system: ARR5:GUS reporter gene; assay: Arabidopsis ARR5:GUS reporter gene assay; format: in vivo, Arabidopsis thaliana; conditions: for ARR5:GUS activity, % of BA activity: 1 μM BA = 100%; for ARR5:GUS activation (in words): in vivo; for EC50: Arabidopsis thaliana, read-out: ARR5:GUS activation EC50
Protocol: Transgenic Arabidopsis plants (Arabidopsis thaliana (L.) Heynh. accession Wassilewskija) harboring the GUS reporter gene (gene for β-glucuronidase) fused to 1.6 kb of the ARR5 (PARR5−GUS) gene promoter (D'Agostino et al., [2000]) were kindly provided by professor Thomas Schmülling. The assay was performed according to Romanov et al. ([2002]). β-Glucuronidase (GUS) activity was quantitatively determined by measuring fluorescence of 4-methylumbelliferyl (MU) on a Synergy H4 hybrid reader (Biotek, Winooski, VT) with excitation and emission wavelengths of 365 and 445 nm, respectively. GUS specific activity was determined as nmol MU × mg protein^−1 × h^−1. This was calculated by dividing the relative fluorescence units (obtained per hour) by protein content of the same sample. Protein extraction was done as described by Romanov et al. ([2002]) but its content was determined using a bicinchoninic acid reagent (Smith et al., [1985]). Finally we expressed the GUS activity in samples as a relative percentage, the activity of 1 μM BA being set as 100% activation. The concentration-dependent activity curves and EC50 values (for TDZ, tZ, BA, TD-iP, and TD-tZ) were constructed using Scion image program.

[2] = molecular target: T1, AHK3 (Arabidopsis thaliana, UniProt Q9C5U1); assay: Cytokinin receptor activation assay in E. coli (AHK3); format: cell-based
T1 construct: expressed in transfected cells; host or cells: Escherichia coli strain KMI001, plasmid pSTV28-AHK3
T1 sequence (Q9C5U1 1-1036): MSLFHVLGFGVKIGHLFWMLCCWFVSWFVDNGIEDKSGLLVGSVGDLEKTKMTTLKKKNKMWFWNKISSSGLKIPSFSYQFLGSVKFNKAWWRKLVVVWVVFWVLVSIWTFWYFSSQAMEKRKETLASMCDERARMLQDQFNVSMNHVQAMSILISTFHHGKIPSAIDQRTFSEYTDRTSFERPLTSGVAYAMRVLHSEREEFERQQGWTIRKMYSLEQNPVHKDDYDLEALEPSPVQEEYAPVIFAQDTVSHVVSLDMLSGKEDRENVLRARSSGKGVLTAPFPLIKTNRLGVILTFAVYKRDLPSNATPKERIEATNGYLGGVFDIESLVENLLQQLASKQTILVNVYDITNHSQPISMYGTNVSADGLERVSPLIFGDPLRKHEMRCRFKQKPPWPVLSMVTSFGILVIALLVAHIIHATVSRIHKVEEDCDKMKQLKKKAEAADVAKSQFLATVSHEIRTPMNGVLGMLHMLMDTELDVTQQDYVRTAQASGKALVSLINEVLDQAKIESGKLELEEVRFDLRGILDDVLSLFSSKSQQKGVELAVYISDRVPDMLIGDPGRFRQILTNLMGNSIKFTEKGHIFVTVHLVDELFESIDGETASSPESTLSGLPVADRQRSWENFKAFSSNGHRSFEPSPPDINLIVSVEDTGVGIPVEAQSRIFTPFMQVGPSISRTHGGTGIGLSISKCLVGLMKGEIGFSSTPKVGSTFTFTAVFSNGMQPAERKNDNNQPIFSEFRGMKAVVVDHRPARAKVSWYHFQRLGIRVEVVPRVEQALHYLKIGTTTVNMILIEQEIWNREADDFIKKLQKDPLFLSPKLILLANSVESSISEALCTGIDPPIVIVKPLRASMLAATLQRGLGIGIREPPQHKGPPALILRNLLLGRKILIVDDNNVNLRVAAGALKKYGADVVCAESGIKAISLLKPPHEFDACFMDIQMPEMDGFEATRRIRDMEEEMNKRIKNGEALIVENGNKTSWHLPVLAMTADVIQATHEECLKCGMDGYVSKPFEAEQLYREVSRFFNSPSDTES
From the text: (§1) The activity of this enzyme is finally measured in the assay and corresponds to the ability of the tested compound to activate this cytokinin receptor. Both assays were done at least twice and the presented graphs are the most representative examples.

[3] = system: cytokinin-dependent tobacco callus; assay: Tobacco callus bioassay; format: cell-based; conditions: for inhibition of callus growth at the highest concentration tested: 100 μM
Protocol: (§2) Tobacco callus, Amaranthus and Wheat leaf senescence assay (WLSA) were performed as described by Holub et al. ([1998]) including the number of repetitions in each assay. An exception to the published protocols was that the tobacco callus assay was performed in 6-well microtiter plates (with each well containing 3 ml of Murashige Skoog medium into which 0.1 g of callus was added). Each compound was tested at least twice in each assay and in a wider concentration range to obtain concentration-dependent activity curves. IC50 means compound concentration at which chlorophyll degradation is inhibited by 50% and EC50 means half the maximal effective concentration.

[4] = system: Amaranthus caudatus cotyledon-hypocotyl explants; assay: Amaranthus bioassay (betacyanin synthesis); format: cell-based, Amaranthus caudatus var. atropurpurea
Protocol: as §2
(§3) Amaranthus assay evaluates the induction of betacyanin synthesis in Amaranthus (Amaranthus caudatus var. atropurpurea) cotyledons, which is induced by cytokinins (Bamberger and Mayer, [1960]). The WLSA evaluates the ability of compounds to retard chlorophyll degradation in excised wheat leaves that are kept in the dark. The wheat leaf segments (Triticum aestivum cv. Hereward) were used in all other experiments requiring wheat. Arabidopsis (Arabidopsis thaliana) leaf senescence assay was performed with detached leaves from 30-day-old plants, which were grown in soil in phytotron under standard conditions (Rivero et al., [2014]). Four leaves of a combined weight of 60 mg were placed in a six-well plate and stored in the dark for 12 days at 22°C. The leaves (except the fresh control leaves) floated on water solutions of tested compounds. Fresh control leaves were leaves detached from a plant and immediately used for chlorophyll determination. The duration of the senescence assay of Arabidopsis leaves was prolonged to highlight the difference in chlorophyll content between a negative control and treatments. Arabidopsis leaves were losing chlorophyll more slowly than wheat leaves. Chlorophyll extraction and spectrophotometric determination of its content was done according to Holub et al. ([1998]).

[5] = system: excised wheat leaves (chlorophyll degradation in the dark); assay: Wheat leaf senescence assay (WLSA); format: cell-based, Triticum aestivum cv. Hereward
Protocol: as §2, §3

[6] = molecular target: T2, CRE1/AHK4 (Arabidopsis thaliana, UniProt Q9C5U0); assay: Cytokinin receptor activation assay in E. coli (CRE1/AHK4); format: cell-based; set-up: expressed in transfected cells; host or cells: Escherichia coli strain KMI001, plasmid pIN-IIIAHK4
From the text: as §1

[7] = molecular target: T2, CRE1/AHK4; conditions: read-out: CRE1/AHK4 receptor activation EC50 (previous study); ref Nisler et al., [2010]; cited from earlier work
[8] = system: detached Arabidopsis leaves (chlorophyll loss in the dark); assay: Arabidopsis leaf senescence assay; format: cell-based, Arabidopsis thaliana; conditions: 1 μM, 12 days in the dark
From the text: as §3

[9] = system: excised wheat leaves (chlorophyll degradation in the dark); conditions: read-out: WLSA IC50; ref Gajdošová et al., [2011]; cited from earlier work
[10] = Nicotiana tabacum, read-out: Tobacco callus bioassay (EC50, μM)
[11] = half the maximal effective concentration, N.A. = not active
[12] = Amaranthus caudatus, read-out: Amaranthus bioassay (EC50, μM)
[13] = Triticum aestivum, 120 h, read-out: Senescence bioassay (IC50, μM)
[14] = Amaranthus caudatus, betacyanin synthesis, N.A. = not active, read-out: Amaranthus bioassay (EC50)
[15] = Triticum aestivum, 120 h, detached wheat leaves in the dark, 5 days, concentration at which chlorophyll degradation is inhibited by 50%, read-out: Senescence bioassay (IC50)
[16] = Nicotiana tabacum, half the maximal effective concentration, N.A. = not active, read-out: Tobacco callus bioassay (EC50)
[17] = betacyanin synthesis, N.A. = not active
[18] = detached wheat leaves in the dark, 5 days, concentration at which chlorophyll degradation is inhibited by 50%, read-out: Senescence bioassay (IC50)
[19] = E. coli bacterial receptor assay, read-out: CRE1/AHK4 receptor activation EC50
[20] = E. coli bacterial receptor assay, read-out: AHK3 receptor activation EC50

T2 sequence (Q9C5U0 whole entry): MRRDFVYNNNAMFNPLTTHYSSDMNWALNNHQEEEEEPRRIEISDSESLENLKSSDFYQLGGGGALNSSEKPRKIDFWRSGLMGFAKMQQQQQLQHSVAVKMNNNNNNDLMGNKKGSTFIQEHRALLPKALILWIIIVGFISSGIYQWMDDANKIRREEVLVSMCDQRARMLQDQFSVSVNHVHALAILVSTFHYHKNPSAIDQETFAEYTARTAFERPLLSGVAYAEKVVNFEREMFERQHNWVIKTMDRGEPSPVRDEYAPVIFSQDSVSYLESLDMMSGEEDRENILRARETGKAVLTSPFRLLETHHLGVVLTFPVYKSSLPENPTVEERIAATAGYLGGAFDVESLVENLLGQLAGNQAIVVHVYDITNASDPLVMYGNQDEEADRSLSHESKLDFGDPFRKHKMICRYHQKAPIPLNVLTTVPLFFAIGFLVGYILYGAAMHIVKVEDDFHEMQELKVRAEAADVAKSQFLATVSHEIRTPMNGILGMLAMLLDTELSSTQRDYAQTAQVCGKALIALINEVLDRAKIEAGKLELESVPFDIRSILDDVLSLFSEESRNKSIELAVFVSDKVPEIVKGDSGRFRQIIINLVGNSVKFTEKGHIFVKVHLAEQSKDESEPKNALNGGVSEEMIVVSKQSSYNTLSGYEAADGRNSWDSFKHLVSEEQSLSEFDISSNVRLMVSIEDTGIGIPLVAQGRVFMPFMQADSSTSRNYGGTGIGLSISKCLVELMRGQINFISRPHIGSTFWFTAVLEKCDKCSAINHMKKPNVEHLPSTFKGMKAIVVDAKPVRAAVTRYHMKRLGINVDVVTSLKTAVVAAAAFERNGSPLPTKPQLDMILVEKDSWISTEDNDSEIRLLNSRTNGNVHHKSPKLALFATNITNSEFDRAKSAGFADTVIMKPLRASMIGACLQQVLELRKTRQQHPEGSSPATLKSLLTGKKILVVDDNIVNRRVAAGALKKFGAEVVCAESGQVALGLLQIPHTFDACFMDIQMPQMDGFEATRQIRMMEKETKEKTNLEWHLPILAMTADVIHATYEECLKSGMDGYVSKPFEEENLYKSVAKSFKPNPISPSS

Molecule: O=C(NCCCl)Nc1cnns1 [Compound 14]
ARR5:GUS activity, % of BA activity ([1]; compound at 1 μM): 65%
EC50 [2]: 15 µM
EC50 [3, 10]: 0.87 µM
Tobacco callus bioassay (EC50, μM) [3, 11]: sub-micromolar range
EC50 [4, 12]: 10.8 µM
IC50 [5, 13]: 14 µM

Molecule: CCOCCNC(=O)Nc1cnns1 [Compound 11]
ARR5:GUS activation (in words) [1]: completely inactive
Tobacco callus bioassay (EC50, μM) [3, 11]: completely inactive
EC50 [4, 14]: > 100 µM
IC50 [5, 15]: 83 µM

Molecule: CC(O)CNC(=O)Nc1cnns1 (stereo not drawn) [Compound 5]
ARR5:GUS activity, % of BA activity ([1]; compound at 10 μM): 55–65%
EC50 [3, 16]: 7.1 µM
Amaranthus bioassay (EC50, μM) [4, 17]: inactive

Molecule: c1ccc(CNc2ncnc3nc[nH]c23)cc1 [BA, N^6-benzyladenine, reference compound]
EC50 ([1]; transgenic Arabidopsis plants): 0.076 µM
% more of chlorophyll retained than DMSO (negative control) [8]: 65%
EC50 [3, 16]: 0.06 µM
EC50 [4, 14]: 0.75 µM
IC50 [5, 15]: > 100 µM

Molecule: O=C(NCCCO)Nc1cnns1 [Compound 2]
EC50 [3, 16]: 7 µM
EC50 [4, 14]: 75.5 µM
IC50 [5, 15]: < 10 µM
IC50 [5, 18]: 8 µM

Molecule: COC(=O)CNC(=O)Nc1cnns1 [Compound 9]
EC50 [3, 16]: 70 µM
EC50 [4, 14]: > 100 µM
IC50 [5, 15]: > 100 µM

Molecule: COCC(C)NC(=O)Nc1cnns1 (stereo not drawn) [Compound 10]
EC50 [3, 16]: 3.1 µM
EC50 [4, 14]: 26.5 µM
IC50 [5, 15]: < 10 µM
IC50 [5, 18]: 8.6 µM

Molecule: COCCN(CCOC)C(=O)Nc1cnns1 [Compound 7]
ARR5:GUS activation (in words) [1]: completely inactive
Tobacco callus bioassay (EC50, μM) [3, 11]: completely inactive
Amaranthus bioassay (EC50, μM) [4, 17]: inactive
IC50 [5, 15]: 62 µM

Molecule: COCCCNC(=O)Nc1cnns1 [Compound 4]
EC50 [3, 16]: 2.2 µM
EC50 [4, 14]: 16.7 µM
IC50 [5, 15]: 19 µM

Molecule: O=C(NCCO)Nc1cnns1 [Compound 1]
EC50 [3, 16]: 15 µM
Amaranthus bioassay (EC50, μM) [4, 17]: inactive
IC50 [5, 15]: 26 µM

Molecule: COCCN(C)C(=O)Nc1cnns1 [Compound 6]
Tobacco callus bioassay (EC50, μM) [3, 11]: completely inactive
Amaranthus bioassay (EC50, μM) [4, 17]: inactive
IC50 [5, 15]: 25 µM

Molecule: COC(CNC(=O)Nc1cnns1)OC [Compound 8]
ARR5:GUS activity, % of BA activity ([1]; compound at 10 μM): 55–65%
EC50 [3, 16]: 2.4 µM
EC50 [4, 14]: 16.7 µM

Molecule: C/C(=C/CNc1ncnc2nc[nH]c12)CO [cis-zeatin, reference compound]
IC50 [9]: ~300 µM
IC50 in WLSA, fold higher than IC50 of ASES [5]: 300 fold
IC50 in WLSA, fold higher than IC50 of tZ [5]: 10 fold

Now from value to molecule, other results behind:

EC50 [3, 16]: 2.4 µM
IC50 [5, 15]: 17 µM
Molecule: C#CCNC(=O)Nc1cnns1 [Compound 12]
EC50 [4, 14]: 15.3 µM

EC50 [1]: 0.009 µM
EC50 [6]: 0.35 µM
EC50 [2]: 0.066 µM
EC50 [3, 10]: 0.012 µM
IC50 [5, 13]: 30 µM
Molecule: C/C(=C\CNc1ncnc2[nH]cnc12)CO [tZ, trans-zeatin, reference compound]
EC50 [7]: 0.2 µM
EC50 [4, 12]: 0.9 µM

EC50 [3, 16]: 0.82 µM
IC50 [5, 15]: 56 µM
Molecule: CC(CO)CCNC(=O)Nc1cnns1 (stereo not drawn) [TD-DHZ, N-(4-hydroxy-3-methyl-butyl)-N′-1,2,3-thiadiazol-5-yl-urea]
times less active than DHZ in tobacco callus assay [3]: 10 times
EC50 [4, 14]: 43 µM

EC50 ([3]; half the maximal effective concentration, N.A. = not active, read-out: Tobacco callus bioassay (EC50)): 0.013 µM
IC50 [5, 18]: > 200 µM
Molecule: N^6-isopentenyladenine [iP, reference compound]
EC50 ([4]; betacyanin synthesis, N.A. = not active, read-out: Amaranthus bioassay (EC50)): 2 µM

EC50 [3, 16]: 1.6 µM
IC50 [5, 15]: < 10 µM
IC50 [5, 18]: 7.1 µM
Molecule: C=CCNC(=O)Nc1cnns1 [Compound 13]
ARR5:GUS activity, % of BA activity ([1]; compound at 10 μM): 55–65%
EC50 [4, 14]: 14.2 µM

EC50 [3, 16]: 0.065 µM
IC50 [5, 15]: > 100 µM
Molecule: CC(CO)CCNc1ncnc2nc[nH]c12 (stereo not drawn) [DHZ, dihydrozeatin, reference compound]
EC50 [4, 14]: 10 µM

Tobacco callus bioassay (EC50, μM) [3, 11]: completely inactive
Molecule: CN(C)CCNC(=O)Nc1cnns1 [Compound 15]
ARR5:GUS activation (in words) [1]: completely inactive
Amaranthus bioassay (EC50, μM) [4, 17]: inactive

EC50 [6, 19]: 32 µM
EC50 [2, 20]: 0.19 µM
EC50 [3, 16]: 0.01 µM
IC50 [5, 15]: 13 µM
Molecule: C/C(=C\CNC(=O)Nc1cnns1)CO [TD-tZ, N-[(E)-4-hydroxy-3-methyl-but-2-enyl]-N′-1,2,3-thiadiazol-5-yl-urea]
EC50 ([1]; transgenic Arabidopsis plants): 0.52 µM
inhibition of callus growth at the highest concentration tested [3]: did not inhibit the growth of callus
EC50 [4, 14]: 1.5 µM

EC50 [6, 19]: 9.4 µM
EC50 [2, 20]: 1.4 µM
EC50 [3, 16]: 0.017 µM
IC50 [5, 15]: 93 µM
Molecule: CC(C)=CCNC(=O)Nc1cnns1 [TD-iP, N-2-isopentenyl-N′-1,2,3-thiadiazol-5-yl-urea]
EC50 ([1]; transgenic Arabidopsis plants): 0.065 µM
inhibition of callus growth at the highest concentration tested [3]: did not inhibit the growth of callus
EC50 [4, 14]: 1.1 µM
